For 11 molecules, IC50 and Ki results are on record in patent publication US20250313572A1, “MACROCYCLIC MCL-1 INHIBITORS AND METHODS OF USE” (AbbVie Inc., priority 2017, published 2025).

Molecules are shown by their SMILES. Where two headings read alike, the source gives them in different places.

Assay [1] has as its system NCI-H929 human multiple myeloma tumor cell line. Kind of assay: NCI-H929 cell viability assay (CellTiter-Glo, 24 hours). In kind it is cell-based. Conditions: Homo sapiens, NCI-H929, 24 h, read-out: H929 Viability IC50 (μM, 10% FBS), 10% FBS, 24 hours of compound treatment.
For assay [2], the system named is AMO-1 human multiple myeloma tumor cell line. Nature of the assay: AMO-1 cell viability assay (CellTiter-Glo, 24 hours). The class given is cell-based. The following applies: Homo sapiens, AMO1, 24 h, read-out: AMO-1 Viability IC50 (μM, 10% FBS), 10% FBS, 24 hours of compound treatment.
A further assay addresses GST-MCL-1 (Homo sapiens, UniProt Q07820). Kind of assay: TR-FRET MCL-1 binding assay (competition with probe F-Bak). In a few lines: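 Displacement of F-Bak from GST-MCL-1 is detected by time-resolved FRET with a Tb-labelled anti-GST antibody, with excitation 340/35 nm and emission 520/525 and 495/510 nm, after 2 hours at room temperature. Compounds were titrated in 11 three-fold steps starting at 25 μM final, in buffer alone or in 10% HS.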

Where [3] appears, read: MCL-1 Binding Ki (nM, 10% HS), in the presence of 10% HS (human serum).
Setting [4] is: without HS, read-out: MCL-1 Binding Ki.

Chain of GST-MCL-1 (Q07820 whole entry): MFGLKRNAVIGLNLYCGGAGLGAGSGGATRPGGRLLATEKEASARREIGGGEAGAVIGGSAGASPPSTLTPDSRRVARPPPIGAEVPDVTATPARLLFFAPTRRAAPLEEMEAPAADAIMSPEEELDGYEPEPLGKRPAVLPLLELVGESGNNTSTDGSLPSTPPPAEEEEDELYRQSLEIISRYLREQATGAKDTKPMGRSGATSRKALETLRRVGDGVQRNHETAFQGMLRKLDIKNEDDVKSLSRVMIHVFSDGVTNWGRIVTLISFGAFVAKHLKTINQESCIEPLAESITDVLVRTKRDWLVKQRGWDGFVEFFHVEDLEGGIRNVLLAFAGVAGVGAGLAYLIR

Consider `Cc1c(Cl)c2c(Cl)c(C)c1-c1c(-c3ccc(F)cc3)sc3ncnc(c13)O[C@@H](C(=O)O)Cc1cc(ccc1OCc1ccnc(C(C)(C)COCCOC[C@H]3COCCO3)n1)OC[C@@H](CN1CCN(C)CC1)O2` [Example 80, (7R,16R)-19,23-dichloro-10-({2-[1-(2-{[(2R)-1,4-dioxan-2-yl]methoxy}ethoxy)-2-methylpropan-2-yl]pyrimidin-4-yl}methoxy)-1-(4-fluorophenyl)-20,22-dimethyl-16-[(4-methylpiperazin-1-yl)methyl]-7,8,15,16-tetrahydro-18,21-etheno-13,9-(metheno)-6,14,17-trioxa-2-thia-3,5-diazacyclononadeca[1,2,3-cd]indene-7-carboxylic Acid], for which the figures for the IC50 in assay [1] and in assay [2] were 0.000954 µM and 0.189 nM, respectively. In addition, the Ki came out at 0.797 nM at GST-MCL-1 (setting [3]) and 0.107 nM at GST-MCL-1 (setting [4]).
Regarding `CO[C@@H]1CO[C@H]2[C@@H]1OC[C@H]2Oc1nccc(COc2ccc3cc2C[C@H](C(=O)O)Oc2ncnc4sc(-c5ccc(F)cc5)c(c24)-c2c(C)c(Cl)c(c(Cl)c2C)O[C@H](CN2CCN(C)CC2)CO3)n1` [Example 146, (7R,16R)-19,23-dichloro-1-(4-fluorophenyl)-10-[(2-{[(3R,3aR,6R,6aR)-6-methoxyhexahydrofuro[3,2-b]furan-3-yl]oxy}pyrimidin-4-yl)methoxy]-20,22-dimethyl-16-[(4-methylpiperazin-1-yl)methyl]-7,8,15,16-tetrahydro-18,21-etheno-13,9-(metheno)-6,14,17-trioxa-2-thia-3,5-diazacyclononadeca[1,2,3-cd]indene-7-carboxylic Acid], the IC50 in assay [1] was found to be 0.00408 µM; in assay [2] it was 2.23 nM. The Ki at GST-MCL-1 (setting [3]) was determined as 0.041 nM; on GST-MCL-1 (setting [4]), 0.001 nM.
Take `COCCOCCOCCOCCOCCOCCOCC1(c2nccc(COc3ccc4cc3C[C@H](C(=O)O)Oc3ncnc5sc(-c6ccc(F)cc6)c(c35)-c3c(C)c(Cl)c(c(Cl)c3C)O[C@H](CN3CCN(C)CC3)CO4)n2)CCC1` [Example 60, (7R,16R)-19,23-dichloro-1-(4-fluorophenyl)-10-({2-[1-(2,5,8,11,14,17,20-heptaoxahenicosan-1-yl)cyclobutyl]pyrimidin-4-yl}methoxy)-20,22-dimethyl-16-[(4-methylpiperazin-1-yl)methyl]-7,8,15,16-tetrahydro-18,21-etheno-13,9-(metheno)-6,14,17-trioxa-2-thia-3,5-diazacyclononadeca[1,2,3-cd]indene-7-carboxylic Acid]: the figures for the half-inhibitory concentration (IC50) in assay [1] and in assay [2] were 0.00115 µM and 0.987 nM, respectively. In addition, the results for the Ki at GST-MCL-1 (setting [3]) and on GST-MCL-1 (setting [4]) were 0.125 nM and 0.042 nM, respectively.
In the case of `COCCOCCOc1cc(COc2ccc3cc2C[C@H](C(=O)O)Oc2ncnc4sc(-c5ccc(F)cc5)c(c24)-c2c(C)c(Cl)c(c(Cl)c2C)O[C@H](CN2CCN(C)CC2)CO3)nc(-c2ccccc2OC)n1` [Example 169, (7R,16R)-19,23-dichloro-1-(4-fluorophenyl)-10-({6-[2-(2-methoxyethoxy)ethoxy]-2-(2-methoxyphenyl)pyrimidin-4-yl}methoxy)-20,22-dimethyl-16-[(4-methylpiperazin-1-yl)methyl]-7,8,15,16-tetrahydro-18,21-etheno-13,9-(metheno)-6,14,17-trioxa-2-thia-3,5-diazacyclononadeca[1,2,3-cd]indene-7-carboxylic Acid], the IC50 in assay [1] was 0.00115 µM; in assay [2], 0.306 nM. Further, the Ki at GST-MCL-1 (setting [3]) was 0.631 nM; on GST-MCL-1 (setting [4]) it was 0.03 nM.
With `CO[C@H]1O[C@H](COc2ccc(-c3nccc(COc4ccc5cc4C[C@H](C(=O)O)Oc4ncnc6sc(-c7ccc(F)cc7)c(c46)-c4ccc(c(Cl)c4C)CN(CCN4CCN(C)CC4)C5)n3)cc2)[C@@H](O)[C@H](O)[C@@H]1O` [Example 10, methyl 6-O-{4-[4-({[(7R,20S)-7-carboxy-18-chloro-1-(4-fluorophenyl)-19-methyl-15-[2-(4-methylpiperazin-1-yl)ethyl]-7,8,15,16-tetrahydro-14H-17,20-etheno-13,9-(metheno)-6-oxa-2-thia-3,5,15-triazacyclooctadeca[1,2,3-cd]inden-10-yl]oxy}methyl)pyrimidin-2-yl]phenyl}-a-D-mannopyranoside], the IC50 in assay [1] is over 1 µM; in assay [2], over 1000 nM. The Ki on GST-MCL-1 (setting [3]) is 0.494 nM; at GST-MCL-1 (setting [4]), 0.06 nM.
On to `Cc1c(Cl)c2c(Cl)c(C)c1-c1c(-c3ccc(F)cc3)sc3ncnc(c13)O[C@@H](C(=O)O)Cc1cc(ccc1OCc1ccnc(N3CCC(C)(N4CCOCC4)CC3)n1)OC[C@@H](CN1CCN(C)CC1)O2` [Example 144, (7R,16R)-19,23-dichloro-1-(4-fluorophenyl)-20,22-dimethyl-10-({2-[4-methyl-4-(morpholin-4-yl)piperidin-1-yl]pyrimidin-4-yl}methoxy)-16-[(4-methylpiperazin-1-yl)methyl]-7,8,15,16-tetrahydro-18,21-etheno-13,9-(metheno)-6,14,17-trioxa-2-thia-3,5-diazacyclononadeca[1,2,3-cd]indene-7-carboxylic Acid], for which the IC50 came to 0.0077 µM in assay [1] and 1.78 nM in assay [2]. The values for the Ki at GST-MCL-1 (setting [3]) and at GST-MCL-1 (setting [4]) were over 444 nM and 10.9 nM, respectively.
In the same order, the values of `CO[C@@H]1CO[C@H]2[C@@H]1OC[C@H]2OCCOc1nccc(COc2ccc3cc2C[C@H](C(=O)O)Oc2ncnc4sc(-c5ccc(F)cc5)c(c24)-c2c(C)c(Cl)c(c(Cl)c2C)O[C@H](CN2CCN(C)CC2)CO3)n1` [Example 134, (7R,16R)-19,23-dichloro-1-(4-fluorophenyl)-10-{[2-(2-{[(3R,3aR,6R,6aR)-6-methoxyhexahydrofuro[3,2-b]furan-3-yl]oxy}ethoxy)pyrimidin-4-yl]methoxy}-20,22-dimethyl-16-[(4-methylpiperazin-1-yl)methyl]-7,8,15,16-tetrahydro-18,21-etheno-13,9-(metheno)-6,14,17-trioxa-2-thia-3,5-diazacyclononadeca[1,2,3-cd]indene-7-carboxylic Acid] are 0.01 µM, 3.04 nM, 0.339 nM and 0.047 nM.
Consider `Cc1c(Cl)c2c(Cl)c(C)c1-c1c(-c3ccc(F)cc3)sc3ncnc(c13)O[C@@H](C(=O)O)Cc1cc(ccc1OCc1ccnc(-c3ccc(OC[C@H](O)CO)cc3)n1)OC[C@@H](CN1CCN(C)CC1)O2` [Example 22, (7R,16R)-19,23-dichloro-10-[(2-{4-[(2R)-2,3-dihydroxypropoxy]phenyl}pyrimidin-4-yl)methoxy]-1-(4-fluorophenyl)-20,22-dimethyl-16-[(4-methylpiperazin-1-yl)methyl]-7,8,15,16-tetrahydro-18,21-etheno-13,9-(metheno)-6,14,17-trioxa-2-thia-3,5-diazacyclononadeca[1,2,3-cd]indene-7-carboxylic Acid], for which the IC50 in assay [1] came to 0.0018 µM; in assay [2], 1.33 nM. Moreover, the inhibitory constant (Ki) on GST-MCL-1 (setting [3]) is 0.214 nM; at GST-MCL-1 (setting [4]), 0.015 nM.
In the same order, the values of `COCCOCCOC[C@@H]1CC=C(c2nccc(COc3ccc4cc3C[C@H](C(=O)O)Oc3ncnc5sc(-c6ccc(F)cc6)c(c35)-c3c(C)c(Cl)c(c(Cl)c3C)O[C@H](CN3CCN(C)CC3)CO4)n2)CC1` [Example 128, (7R,16R)-19,23-dichloro-1-(4-fluorophenyl)-10-({2-[(4S)-4-{[2-(2-methoxyethoxy)ethoxy]methyl}cyclohex-1-en-1-yl]pyrimidin-4-yl}methoxy)-20,22-dimethyl-16-[(4-methylpiperazin-1-yl)methyl]-7,8,15,16-tetrahydro-18,21-etheno-13,9-(metheno)-6,14,17-trioxa-2-thia-3,5-diazacyclononadeca[1,2,3-cd]indene-7-carboxylic Acid] are 0.000313 µM, 0.0939 nM, 0.275 nM and 0.027 nM.
In the same order, the values of `COCCOCCOCCOCCOCCO[C@H]1CC[C@H](c2nccc(COc3ccc4cc3C[C@H](C(=O)O)Oc3ncnc5sc(-c6ccc(F)cc6)c(c35)-c3c(C)c(Cl)c(c(Cl)c3C)O[C@H](CN3CCN(C)CC3)CO4)n2)CC1` [Example 66, (7R,16R)-19,23-dichloro-1-(4-fluorophenyl)-20,22-dimethyl-16-[(4-methylpiperazin-1-yl)methyl]-10-[(2-{(1r,4r)-4-[(2,5,8,11,14-pentaoxahexadecan-16-yl)oxy]cyclohexyl}pyrimidin-4-yl)methoxy]-7,8,15,16-tetrahydro-18,21-etheno-13,9-(metheno)-6,14,17-trioxa-2-thia-3,5-diazacyclononadeca[1,2,3-cd]indene-7-carboxylic Acid] are 0.00121 µM, 0.876 nM, 0.119 nM and 0.015 nM.
In the same order, the values of `Cc1c(Cl)c2c(Cl)c(C)c1-c1c(-c3ccc(F)cc3)sc3ncnc(c13)O[C@@H](C(=O)O)Cc1cc(ccc1OCc1ccnc(N3CC(C(CO)CO)C3)n1)OC[C@@H](CN1CCN(C)CC1)O2` [Example 65, (7R,16R)-19,23-dichloro-10-({2-[3-(1,3-dihydroxypropan-2-yl)azetidin-1-yl]pyrimidin-4-yl}methoxy)-1-(4-fluorophenyl)-20,22-dimethyl-16-[(4-methylpiperazin-1-yl)methyl]-7,8,15,16-tetrahydro-18,21-etheno-9,13-(metheno)-6,14,17-trioxa-2-thia-3,5-diazacyclononadeca[1,2,3-cd]indene-7-carboxylic Acid] are 0.0596 µM, 20.9 nM, 0.65 nM and 0.195 nM.
